Series [1] in a line: in vivo. The following applies: female, NMRI nude (nu/nu), mouse, total radioactivity; for tissue to tissue ratio at 0.75 h: iv, tumor-to-muscle ratio. As for the experimental part: (§1) 8–12 weeks old female NMRI nude (nu/nu) mice (body weight 22–32 g) (Charles River, Sulzfeld, Germany) were kept under specified pathogen free (SPF) conditions at 23 °C, 55% relative humidity and a 12 h light/dark cycle in the central animal facility of the University of Regensburg using type III cages from Tecniplast (Hohenpeißenberg, Germany). The animals took food (Ssniff, Soest, Germay) and autoclaved tap water ad libitum. For tumor cell implantation, the culture medium of HT-29 cells was removed, the cells were detached from the culture flask by incubation for 2 min in trypsin-EDTA and the suspension was centrifuged (5 min, rt, 164 g). The supernatant was removed, and the cell pellet was washed twice with sterile PBS or serum-free medium (5–6 mL). The cells were resuspended in sterile PBS to a final density of 1 × 10^7 cells/mL. Mice were injected subcutaneously into the right flank with the HT-29 cell suspension (100 µL). After 2–4 weeks, when the tumors had reached a size of 50–500 mm^3, animals were used for biodistribution and PET/computed tomography (CT) imaging studies (note: for PET/CT studies, the tumor size was at least 200 mm^3).
(§2) Aliquots of the tracer stock were diluted in PBS to give a volume of 200 µL. 80–100 µL (0.9–5.9 MBq) of this solution were injected into anesthetized HT-29 tumor-bearing nude mice via the tail vein. Animals were kept on a heating plate (set to 40 °C) or a pre-heated (ca. 45 °C) gel cushion and were killed by cardiac puncture 10 min, 25 min or 45 min p.i. immediately followed by taking blood, urine and tissue (i.e., tumor, kidney, liver, gall bladder, spleen, small intestine, heart, lung, brain, pancreas, femur and muscle) samples. Radioactivity measurement of the samples was performed with the Canberra Genie 2000 system described for the determination of the distribution coefficient logD7.4. Decay-corrected measured activities (cpm) were converted into activities (MBq) on the basis of an activity measurement with a ^68Ge-calibration standard source (Eckert&Ziegler, Berlin, Germany). Sample activities were converted to percentage of injected dose per gram tissue (%ID/g). Blocking experiments were performed by co-injection of the tracer with NTS1R ligand 48 (ca. 700 nmol per mouse). Mice were killed 45 min p.i. and analyzed as described above. The animals used for the 45-min biodistribution experiments were the same as used for the PET/CT imaging studies.

Series [2] has as its system HT-29 tumor-bearing nude mice. In words: in vivo. The following applies: mouse. As for the experimental part:
as §1, §2

Series [3] can be described thus: physchem. In kind it is physicochemical. The following applies: pH 7.4. As for the experimental part:
The distribution coefficients logD7.4 of the radiotracers [^68Ga]21, [^68Ga]33, [^68Ga]37 and [^68Ga]56 were determined by adding a solution of the tracer in PBS (100 μL, ca. 0.20–0.34 MBq) to a mixture of n-octanol (500 μL) and PBS (pH 7.4) (400 μL) in a 2-mL HPLC vial (Agilent, article number 5182-0714) with a screw cap equipped with a septum (Agilent, article number 5182-0717). After vortexing the mixture for 2 min, two 100 μL aliquots of the upper phase (n-octanol) were taken. To obtain a sample of the lower phase (PBS), the HPLC vial was held upside down and approximately 100–150 µL of the aqueous phase were removed using a syringe equipped with a canula and collected in a reaction vessel. Two 10 µL aliquots of the aqueous phase were subjected to measurement. The activity of the aliquots was measured with a Canberra Genie 2000 system (Canberra, Rüsselsheim, Germany) using the Gamma Acquisition & Analysis Software Genie 2000 3.4.1. Experiments were performed in triplicate. The decay-corrected counts per minute (cpm) values were averaged (n = 3) and transformed to a distribution coefficient logD7.4 according to logD7.4 = log(Aoctanol/Aaqueous), where Aoctanol is the mean of the decay-corrected cpm values obtained for samples of the n-octanol phase, and Aaqueous is the mean of the decay-corrected cpm values obtained for samples of the aqueous phase.

Setting [4] is: Uptake (%ID/g) gall bladder (bile).
Setting [5] is: female, NMRI nude (nu/nu), 0.75 h.

Take `CN[C@@H](CCCNC(N)=NC(=O)NCCCCNC(=O)CN1CCN(CC(=O)O)CCN(CC(=O)O)CCN(CC(=O)O)CC1)C(=O)N[C@@H](CCCNC(=N)N)C(=O)N1CCC[C@H]1C(=O)N[C@@H](Cc1ccc(O)cc1)C(=O)N[C@H](C(=O)N[C@@H](CC(C)C)C(=O)O)C(C)(C)C` [[^68Ga]21, metal not drawn]: the tissue to tissue ratio at 0.75 h in series [1] was determined as 9.5 ± 3.7. For the same compound, the tissue uptake at 0.75 h was found to be 0.63 ± 0.2 %ID/g in series [1] (Uptake (%ID/g) blood); 0.55 ± 0.29 %ID/g in series [1] (setting [4]); 6 ± 1.9 %ID/g in series [1] (Uptake (%ID/g) kidney); 0.59 ± 0.17 %ID/g in series [1] (Uptake (%ID/g) liver); 0.21 ± 0.062 %ID/g in series [1] (Uptake (%ID/g) muscle); 1.9 ± 0.7 %ID/g in series [1] (Uptake (%ID/g) tumor). The tumor-to-muscle ratio in series [2] came to 9.5. This compound came in with a logD in series [3] of -3.87.
As for `CN[C@@H](CCCNC(N)=NC(=O)NCCOCCOCCNC(=O)[C@@H](Cc1ccc(-c2ccc(F)cc2)cc1)NC(=O)CCCCCNC(=O)CN1CCN(CC(=O)O)CCN(CC(=O)O)CCN(CC(=O)O)CC1)C(=O)N[C@@H](CCCNC(=N)N)C(=O)N1CCC[C@H]1C(=O)N[C@@H](Cc1ccc(O)cc1)C(=O)N[C@H](C(=O)N[C@@H](CC(C)C)C(=O)O)C(C)(C)C` [[^68Ga]33, metal not drawn], the tissue to tissue ratio at 0.75 h in series [1] was found to be 4.1 ± 1.7. The tissue uptake at 0.75 h in series [1] (Uptake (%ID/g) blood) is 1.3 ± 0.29 %ID/g; in series [1] (setting [4]), 2 ± 0.14 %ID/g; in series [1] (Uptake (%ID/g) kidney), 10 ± 0.96 %ID/g; in series [1] (Uptake (%ID/g) liver), 16 ± 2.2 %ID/g; in series [1] (Uptake (%ID/g) muscle), 0.41 ± 0.17 %ID/g; in series [1] (Uptake (%ID/g) tumor) it was 1.5 ± 0.22 %ID/g. For the same compound, in series [2], the tumor-to-muscle ratio turned out to be 4.1. The same compound gave a logD in series [3] of -2.48.
`CN[C@@H](CCCNC(N)=NC(=O)NCCOCCOCCNC(=O)[C@@H](Cc1ccc(-c2ccc(F)cc2)cc1)NC(=O)CN1CCN(CC(=O)O)CCN(CC(=O)O)CCN(CC(=O)O)CC1)C(=O)N[C@@H](CCCNC(=N)N)C(=O)N1CCC[C@H]1C(=O)N[C@@H](Cc1ccc(O)cc1)C(=O)N[C@H](C(=O)N[C@@H](CC(C)C)C(=O)O)C(C)(C)C` [[^68Ga]37, metal not drawn]: in series [1], the tissue to tissue ratio at 0.75 h stood at 3.4 ± 0.71. Besides, the tissue uptake at 0.75 h in series [1] (setting [4]) came to 1.9 ± 0.34 %ID/g; in series [1] (Uptake (%ID/g) kidney), 7.6 ± 0.39 %ID/g; in series [1] (Uptake (%ID/g) liver) it was 4.1 ± 0.79 %ID/g; in series [1] (Uptake (%ID/g) muscle), 0.5 ± 0.18 %ID/g; in series [1] (Uptake (%ID/g) tumor), 1.6 ± 0.19 %ID/g. Besides, in series [2], the tumor-to-muscle ratio was found to be 3.4. The same compound came in with a logD in series [3] of -2.59.
For the compound `CC[C@H](C)[C@H](NC(=O)[C@@H](NC(=O)[C@@H]1CCCN1C(=O)[C@H](CCCNC(=N)N)NC(=O)[C@H](CCCNC(N)=NC(=O)NCCCCNC(=O)CN1CCN(CC(=O)O)CCN(CC(=O)O)CCN(CC(=O)O)CC1)NC)C(C)(C)c1ccc(O)cc1)C(=O)N[C@@H](CC(C)C)C(=O)O` [[^68Ga]56, metal not drawn], the tissue uptake at 10 min stood at 3.1 ± 0.34 %ID/g in series [1] (Uptake (%ID/g) blood); 0.079 ± 0.017 %ID/g in series [1] (Uptake (%ID/g) brain); 0.95 ± 0.25 %ID/g in series [1] (Uptake (%ID/g) femur); 1.1 ± 0.71 %ID/g in series [1] (setting [4]); 1.2 ± 0.1 %ID/g in series [1] (Uptake (%ID/g) heart); 1.8 ± 0.22 %ID/g in series [1] (Uptake (%ID/g) intestine). The tissue uptake at 10 min in series [1] (Uptake (%ID/g) kidney) is 47 ± 3.4 %ID/g; in series [1] (Uptake (%ID/g) liver) it was 7.2 ± 0.83 %ID/g; in series [1] (Uptake (%ID/g) lung) it was 2.4 ± 0.3 %ID/g; in series [1] (Uptake (%ID/g) muscle) it was 1.1 ± 0.18 %ID/g; in series [1] (Uptake (%ID/g) pancreas), 1.3 ± 0.83 %ID/g; in series [1] (Uptake (%ID/g) spleen) it was 2.5 ± 0.25 %ID/g. The tissue uptake at 10 min in series [1] (Uptake (%ID/g) tumor) came to 3.6 ± 0.2 %ID/g. Further, the tissue uptake at 25 min in series [1] (Uptake (%ID/g) blood) worked out at 2.9 ± 1.3 %ID/g; in series [1] (Uptake (%ID/g) brain), 0.13 ± 0.11 %ID/g; in series [1] (Uptake (%ID/g) femur), 0.78 ± 0.27 %ID/g; in series [1] (setting [4]), 1.9 ± 0.79 %ID/g; in series [1] (Uptake (%ID/g) heart), 1.3 ± 0.49 %ID/g; in series [1] (Uptake (%ID/g) intestine) it was 2.4 ± 0.68 %ID/g. For the same compound, the tissue uptake at 25 min in series [1] (Uptake (%ID/g) kidney) is 47 ± 7 %ID/g; in series [1] (Uptake (%ID/g) liver), 5.7 ± 1.6 %ID/g; in series [1] (Uptake (%ID/g) lung) it was 2.8 ± 1.5 %ID/g; in series [1] (Uptake (%ID/g) muscle) it was 0.57 ± 0.23 %ID/g; in series [1] (Uptake (%ID/g) pancreas), 1.1 ± 1.1 %ID/g; in series [1] (Uptake (%ID/g) spleen), 2.6 ± 0.6 %ID/g. In series [1] (Uptake (%ID/g) tumor), the tissue uptake at 25 min was 7.3 ± 1.8 %ID/g. In addition, the tissue uptake at 0.75 h worked out at 1.3 ± 0.33 %ID/g in series [1] (Uptake (%ID/g) blood); 0.061 ± 0.049 %ID/g in series [1] (Uptake (%ID/g) brain); 0.73 ± 0.29 %ID/g in series [1] (Uptake (%ID/g) femur); 0.72 ± 0.36 %ID/g in series [1] (Uptake (%ID/g) heart); 55 ± 28 %ID/g in series [1] (Uptake (%ID/g) kidney); 1.2 ± 0.34 %ID/g in series [1] (Uptake (%ID/g) lung). Moreover, the tissue uptake at 0.75 h in series [1] (Uptake (%ID/g) muscle) came to 0.55 ± 0.23 %ID/g; in series [1] (Uptake (%ID/g) pancreas) it was 0.9 ± 0.57 %ID/g. Also, the “Uptake (%ID/g) blood” value in series [2] (setting [5]) is listed as 1.4 ± 1.0 %ID/g. The “Uptake (%ID/g) brain” value in series [2] (setting [5]) was found to be 0.10 ± 0.074 %ID/g. The “Uptake (%ID/g) femur” value in series [2] (setting [5]) was 0.65 ± 0.43 %ID/g. Also, the “Uptake (%ID/g) heart” value in series [2] (setting [5]) came out at 0.60 ± 0.44 %ID/g. Moreover, the “Uptake (%ID/g) kidney” value in series [2] (setting [5]) is listed as 53 ± 27 %ID/g. Further, the “Uptake (%ID/g) muscle” value in series [2] (setting [5]) is reported as 0.68 ± 0.61 %ID/g. The “Uptake (%ID/g) pancreas” value in series [2] (setting [5]) was determined as 0.51 ± 0.37 %ID/g. Also, the logD in series [3] was -3.06.

As usually defined, the tissue uptake is the percentage of the injected dose found per gram of tissue. The logD is the decadic logarithm of the distribution of all forms, ionised or not, between an organic phase and buffer at a given pH. A low value points to lower lipophilicity.

(Values after PMC9564337, “Development of a Neurotensin-Derived ^68Ga-Labeled PET Ligand with High In Vivo Stability for Imaging of NTS1 Receptor-Expressing Tumors” (Cancers, 2022).)
